Assay results from PMC2360332 (British Journal of Cancer, 2007).
Where two headings read alike, the source gives them in different places.

Assays:
immature mouse uterus = experiment: Immature mouse uterine growth assay; type: in vivo, Swiss mice; conditions: uteri harvested 22 h later, five mice per group; for Growth of immature mouse uterus (in words): single agent i.p., Tam 1 μg or AFPep 10 μg
Excerpt: Control mice received the vehicle. Twenty-two hours later, uteri were harvested, trimmed free of connective tissue, and weighed. Uterine weights were normalised to donor mouse body weight. There were five replicate mice per group.
Twenty-two hours after treatment, uteri were harvested, weighed, and normalised to mouse body weight.

[1] = Toxicity in MNU-exposed rats (body weight, organ weights, fur texture, cage activity); type: in vivo, Sprague–Dawley rats; conditions: for Body weight / Uterine weight / Heart weight: 20 days; for Body weight: control 283±30; for Uterine weight: control 0.54±0.15; for Heart weight: control 1.10±0.14
Excerpt: [Swanson et al, 1997]). […] In the therapy model (human tumour xenografts growing in mice) and in the prevention model (MNU-induced mammary cancers in rats), the toxicity of […]

[2] = tested on: MNU-induced breast cancers in rats; experiment: Prevention of MNU-induced mammary cancers in rats; conditions: for Inhibition of tumour formation (in words): Tam 6.25 μg animal^−1 day^−1 or higher, AFPep 270 μg animal^−1 day^−1; for Incidence (percent of rats with one or more tumours when killed, approximately 120 days after MNU): 20 days from 10 days after MNU 50 mg kg^−1, n=30 rats, control 78%; for Volume (sum of the volumes of tumours in each group) / Multiplicity (total number of tumours/number of rats) / Latency (mean number of tumour-free days±s.d.): 20 days; for Volume (sum of the volumes of tumours in each group): control 69.0; for Multiplicity (total number of tumours/number of rats): control 2.1; for Latency (mean number of tumour-free days±s.d.): control 80±31
Method: Female rats were housed three per cage in a room maintained at 22±1°C, and artificially lighted for 12 h per day. At 50 days of age, rats received a single injection of MNU (50 mg kg^−1 body weight) or vehicle in the jugular vein. N-methyl-N-nitrosourea was administered to animals in the various treatment groups according to a predetermined randomisation chart, so as to ensure uniform distribution of the carcinogen across the groups. […] A control group of animals received daily 0.2 ml s.c. injections of saline for the same time period as AFPep administration and experienced the maximal number of tumours. Starting 30 days after MNU treatment, all rats were palpated weekly for detection of mammary tumours, noting number, location, and size. Tumour burden was determined noninvasively using calipers to measure the long (D) and short (d) diameter of each tumour. Assuming that tumours were ellipsoid shaped, tumour volume was estimated as (0.52d^2D). Cage activity of all animals was monitored daily for gross signs of toxicity. At necropsy, body weight and organ weights were assessed as indicators of toxicity.
Sprague–Dawley female rats (n=30 rats group^−1) received MNU (50 mg kg^−1) at the age of 50 days. […] Animals were palpated weekly. The incidence of tumours is shown as a function of time after carcinogen treatment.

[3] = tested on: MCF-7 human breast cancer xenografts; experiment: MCF-7 human breast cancer xenograft under kidney capsule of SCID mice; type: in vivo, human (cells), SCID mice (host); conditions: E2 supplementation, five mice per group
Excerpt: Ten million MCF-7 human breast cancer cells were harvested from culture, centrifuged into a pellet, solidified into a fibrin clot, and implanted under the kidney capsule of SCID mice as described previously ([Bennett et al, 1985], [2002], [2006]; [Mesfin et al, 2001]; [Parikh et al, 2005]). Oestrogen supplementation was accomplished by s.c. implantation of a 5 mm silastic tubing capsule containing solid E2 inserted on the day of tumour implantation. […] The tumour-bearing kidney was exposed during survival laparotomy at 14 and 28 days after implantation and tumour size was measured using a dissecting microscope equipped with an ocular micrometer, noting the long (D) and short (d) diameters of the tumour. Five replicate mice were included in each treatment group. Mean tumour volume (0.52d^2D) was calculated for each group, and used for display of growth curves. Significance of differences between groups was tested using the one-sided Wilcoxon rank sum test.
Pieces of MCF-7 tumour were implanted under the kidney capsule of SCID mice. Oestradiol was provided via an E2-containing silastic tubing subcutaneous implant.

[4] = tested on: phosphorylation of ER at serine 118; conditions: cited from earlier work
Excerpt: Mechanistically, AFPep is quite different from Tam. […] In fact, in this study and ...

[5] = tested on: T47D human breast cancer cells; experiment: Growth of T47D human breast cancer cells in culture (7 days, viable cell count); type: cell-based; conditions: for Inhibition of basal (no E2) growth of T47D cells (in words): 10^−8 to 10^−5 M, data not shown; for Inhibition of E2-stimulated growth of T47D cells, single agent (in words): E2 10^−9 M added 1 h after agent, daily for 7 days, agent used alone, concentration–response in Figure 1A
Method: The MCF-7 cells were maintained in monolayer culture in Dulbecco's modification of Eagle's medium (DMEM) supplemented with 5% fetal bovine serum, glutamine (2 mM), nonessential amino acids (1%), and bovine insulin (1 μg ml^−1). The T47D human breast cancer cells were maintained in monolayer culture in RPMI-1640 medium supplemented with 10% fetal bovine serum, 100 IU ml^−1 penicillin, 100 μg ml^−1 streptomycin, 0.25 μg ml^−1 amphotericin B, and 8 μg ml^−1 bovine insulin in T-75 flasks with 2–3 medium changes per week. Cells were maintained at 37°C in an atmosphere of 5% CO2, 95% air. To evaluate the oestrogen-stimulated growth of these cells, they were released from monolayer using 0.25% trypsin/0.53 mM EDTA and suspended in oestrogen-free medium comprised of DMEM (high glucose, phenol red-free), supplemented with 10% charcoal-stripped bovine calf serum, 2 mM glutamine, 100 IU ml^−1 penicillin, and 100 μg ml^−1 streptomycin. One millilitre containing 1.2 × 10^5 cells was seeded into each well of a 24-well plate coated with collagen IV (BD Biosciences, Bedford, MA, USA). […] Control wells received the vehicle. Medium was changed every other day before treatment. One day after the last treatment, cells were trypsinised and resuspended in oestrogen-free medium, and counted using a haemacytometer following dilution with trypan blue. Viable cell number is reported.
T47D (1 × 10^5) cells were seeded into wells of collagen-coated plates in oestrogen-free medium. Medium was changed daily. Twenty-four hours after seeding, AFPep and/or Tam were added. One hour later E2 (10^−9 M) was added. Cells were treated daily for 7 days after which cells were harvested and counted in a hemacytometer. Mean viable cell number of six replicate wells ±s.e. was determined. (A) Concentration–response curve of each agent alone. Inhibition (%) of E2-stimulated growth is reported. (▪) Tam; (▴) AFPep. […] Mean viable cell number is reported.

oestrogen receptor (ER) = experiment: Inhibition of binding of [^3H]E2 to oestrogen receptor (rabbit uterine cytosol); conditions: rabbit uterine cytosol 2.5 mg protein ml^−1, 20 μl of 10 nM 6,7-[^3H]E2, overnight at 4°C, pH 7.4, dextran-coated charcoal; triplicate
Method: Rabbit uteri (Pel-Freez Biological, Rogers, AR, USA) were used as a source of ER. Uteri were pulverised in a stainless-steel impact mortar under liquid nitrogen and homogenised (20% w/v) in buffer (10 mM Tris, pH 7.4, 1.5 mM EDTA, 10% glycerol, 10 mM monothioglycerol, and 10 mM sodium molybdate) on ice. Centrifugation (50 000 g) for 1 h yielded cytosol, which was adjusted with buffer to 2.5 mg protein ml^−1. All incubations were carried out in triplicate, each containing 100 μl of cytosol, 20 μl of 10 nM 6,7-[^3H]oestradiol (6,7-[^3H]E2), and 80 μl of antagonist. After incubation overnight at 4°C, tubes received 300 μl of dextran-coated charcoal suspension; tubes were agitated for 15 min, and then centrifuged (1000 g) for 15 min.
Rabbit uterine cytosol was used as a source of ER. Test agents (80 μl) at the final concentrations indicated were incubated in triplicate with 100 μl of cytosol, and 20 μl of 10 nM 6,7-[^3H]E2 (50 Ci mmol^−1). The concentration of the [^3H]E2 complex with receptor in the presence of the test agent is expressed as a percentage of the amount of complex formed in the absence of test agent.

ER = conditions: ref Parikh et al, 2005; Bennett et al, 2006; cited from earlier work
Excerpt: In fact, in this study and ...

[6] = higher dose: AFPep 270 or Tam 6.25 μg/rat/day
[7] = suboptimal dose: AFPep 100, Tam 0.05, or both (100+0.05) μg/rat/day
[8] = higher dose: AFPep 270 μg/rat/day s.c. or Tam 6.25 μg/rat/day oral gavage
[9] = higher dose: AFPep 270 (marked * P<0.05 vs control) or Tam 6.25 μg/rat/day
[10] = suboptimal dose: AFPep 100 μg/rat/day s.c., Tam 0.05 μg/rat/day oral gavage, or both (100+0.05)
[11] = suboptimal dose: AFPep 100, Tam 0.05, or both (100+0.05) μg/rat/day, AFPep and AFPep+Tam marked * P<0.05 vs control
[12] = effective single-agent dose: AFPep 10 μg mouse^−1 day^−1 i.p. or Tam 1 μg mouse^−1 day^−1 p.o., over a 30-day period
[13] = suboptimal dose: AFPep 0.1 μg i.p., Tam 0.05 μg p.o. per mouse per day, single agents
[14] = higher dose: AFPep 270 μg/rat/day

| Molecule | Growth of immature mouse uterus (in words) (immature mouse uterus) | Body weight [1, 6] | Uterine weight [1, 7] | Heart weight [1, 7] | Body weight [1, 7] | Inhibition of tumour formation (in words) [2] | Incidence (percent of rats with one or more tumours when killed, approximately 120 days after MNU) [2, 8] | Volume (sum of the volumes of tumours in each group) [2, 9] | Multiplicity (total number of tumours/number of rats) [2, 6] | Latency (mean number of tumour-free days±s.d.) [2, 6] | Incidence (percent of rats with one or more tumours when killed, approximately 120 days after MNU) [2, 10] | Volume (sum of the volumes of tumours in each group) [2, 11] | Multiplicity (total number of tumours/number of rats) [2, 7] | Latency (mean number of tumour-free days±s.d.) [2, 7] | Growth of MCF-7 tumour xenografts (in words) [3, 12] | Growth of MCF-7 tumour xenografts (in words) [3, 13] | Inhibition of basal (no E2) growth of T47D cells (in words) [5] | Inhibition of E2-stimulated growth of T47D cells, single agent (in words) [5] | Inhibition of binding of [^3H]E2 to ER (in words) (oestrogen receptor (ER)) | further results |
| --- | --- | --- | --- | --- | --- | --- | --- | --- | --- | --- | --- | --- | --- | --- | --- | --- | --- | --- | --- | --- |
| CC/C(=C(\c1ccccc1)c1ccc(OCCN(C)C)cc1)c1ccccc1 [Tam, Tamoxifen, reference compound] | stimulates the growth of immature mouse uterus | 273 ± 28 g | 0.49 ± 0.17 g | 1.12 ± 0.13 g | 282 ± 31 g | significant inhibition of tumour formation | 26% | 70.2 cm^3 | 0.5 tumours/rat | 85 ± 15 days | 73% | 62.4 cm^3 | 1.3 tumours/rat | 95 ± 36 days | completely prevented the growth of MCF-7 tumour xenografts | tumour growth occurred, although it was less than tumour growth in nontreated mice | neither Tam nor AFPep inhibited the basal (no E2) growth | inhibited the E2-stimulated growth | concentration-dependent inhibition of E2 binding | Effect on uterine growth (in words) ([1]; rats, low doses, whether or not AFPep was present): no effect on uterine growth; Stimulation of phosphorylation of ER at serine 118 (in words) ([4]; following binding to receptor, ref Chen et al, 2002): stimulates phosphorylation of ER at serine 118 |
| cyclo(EKTOVNOGN) (head to tail) [AFPep] | does not stimulate uterine growth | 280 ± 29 g | 0.52 ± 0.15 g | 1.12 ± 0.14 g | 285 ± 24 g | significant inhibition of tumour formation | 40% | 34.5^* cm^3 | 0.5 tumours/rat | 88 ± 16 days | 63% | 39.1^* cm^3 | 1.1 tumours/rat | 97 ± 33 days | completely prevented the growth of MCF-7 tumour xenografts | tumour growth occurred, although it was less than tumour growth in nontreated mice | neither Tam nor AFPep inhibited the basal (no E2) growth | inhibited the E2-stimulated growth | did not inhibit the binding of [^3H]E2 to ER | Tam-induced growth of immature mouse uterus (in words) (immature mouse uterus; AFPep 10 μg i.p. 1 h before Tam 1 μg i.p., Figure 4 * P<0.05 vs Tam alone, Dunnett's test): significantly inhibits the Tam-induced growth of the immature mouse uterus; Uterine weight [1, 14]: 0.62 ± 0.17 g; Heart weight [1, 14]: 1.09 ± 0.13 g; Effect on body weight, fur texture, cage activity, organ weights (in words) ([1]; rats, therapeutic doses for 2–3 weeks): no effect on body weight, fur texture, or cage activity during the lifespan of the animals, or on organ weights obtained at necropsy; Stimulation of phosphorylation of ER at serine 118 (in words) ([4]; ref Bennett et al, 2006): did not stimulate phosphorylation of ER at serine 118; Inhibition of phosphorylation of ER following ligand binding (in words) ([4]; stated in Discussion as function of AFPep, not measured in this paper): inhibit the phosphorylation of ER that follows ligand binding to ER; ER antagonist / partial agonist (in words) (ER): not an ER antagonist, nor an ER partial agonist |
